Patent US20250171399A1, “PYRROLIDINE COMPOUNDS” (Eli Lilly and Company, priority 2022, published 2025)
Structures can show the parent of a compound that is named as a salt.

Target: T1, human Apo(a) protein (Homo sapiens, UniProt P08519)
T1 sequence (P08519 1053-1693 limits assumed): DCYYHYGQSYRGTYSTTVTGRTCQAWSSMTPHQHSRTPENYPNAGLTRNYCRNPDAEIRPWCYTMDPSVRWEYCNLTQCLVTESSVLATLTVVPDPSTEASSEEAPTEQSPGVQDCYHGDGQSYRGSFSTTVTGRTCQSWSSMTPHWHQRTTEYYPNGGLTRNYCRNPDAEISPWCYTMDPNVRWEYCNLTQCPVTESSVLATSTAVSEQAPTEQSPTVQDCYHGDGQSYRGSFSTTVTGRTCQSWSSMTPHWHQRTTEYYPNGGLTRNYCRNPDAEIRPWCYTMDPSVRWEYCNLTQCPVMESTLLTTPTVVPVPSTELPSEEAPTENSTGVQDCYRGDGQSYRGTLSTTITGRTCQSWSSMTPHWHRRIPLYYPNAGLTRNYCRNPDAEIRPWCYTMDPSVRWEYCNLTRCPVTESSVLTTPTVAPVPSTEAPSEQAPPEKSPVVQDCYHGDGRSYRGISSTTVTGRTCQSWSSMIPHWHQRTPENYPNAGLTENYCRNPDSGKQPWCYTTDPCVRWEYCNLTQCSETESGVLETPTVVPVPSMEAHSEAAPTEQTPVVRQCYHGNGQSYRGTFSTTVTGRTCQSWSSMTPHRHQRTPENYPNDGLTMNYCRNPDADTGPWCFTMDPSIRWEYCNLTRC
Assay: In vitro Apo(a) binding assay (competitive SPA radioligand binding)
Details: competitive binding vs tritium-labeled radioligand 0.52 nM; human Apo(a) containing 17 Kringle repeats; 60 min at RT
Description: The in vitro binding affinity of compounds to the intended target human Apo(a) protein were tested in a competitive binding assay. Human Apo(a) protein containing 17 Kringle repeats was affinity purified from conditioned media of transiently transfected HEK-293F cells. All reagents were prepared in assay buffer containing 50 mM Tris-HCl pH 7.4, 0.1% BSA. The binding assay was conducted by adding to each well of a clear-bottom plate 50 μL each of (1) test compound in dilution series (final concentration 0.32˜10000 nM), (2) Apo(a) protein (6 ng/well), (3) re-suspended Wheat Germ Agglutinin Polyvinyltoluene SPA beads (20 mg/mL), and (4) the radioligand, tritium-labeled (2S)-3-[3-[2-oxo-3-[3-(tritritiomethoxy)phenyl]imidazolidin-1-yl]phenyl]-2-[(3R)-pyrrolidin-3-yl]propanoic acid hydrochloride (prepared essentially as described in WO 2020/247429; final concentration 0.52 nM). Plates were incubated for 60 min at RT and counted on TRILUX LSC. Non-specific binding, defined as binding in the presence of […] cold (i.e. non-radiolabeled) ligand: (2S)-3-[3-[2-oxo-3-[3-(methoxy)phenyl]imidazolidin-1-yl]phenyl]-2-[(3R)-pyrrolidin-3-yl]propanoic acid hydrochloride (prepared essentially as described in WO 2020/247429) was subtracted to determine specific binding. Data were analyzed by fitting to a standard single site binding model and the IC50 for the Example test compound was determined. […]

- IC50: 4.68 nM
Structure (SMILES): COc1cc(F)cc(CNc2cccc(C[C@H](C(=O)O)[C@H]3CCNC3)c2)c1 [Example 6, (2S)-3-[3-[[(3-Fluoro-5-methoxy-phenyl)methyl]amino]phenyl]-2-[(3R)-pyrrolidin-3-yl]propanoic acid;hydrochloride]
